Results published in BindingDB's records for doi:10.1021/acs.jmedchem.0c00377 (Huazhong University of Science and Technology, 2020).

Experiments:
[1] = Binding affinity to recombinant TNFalpha (unknown origin) expressed in Escherichia coli BL21 (DE3) assessed as Kd for TNF-alpha-TNFR1 binding at 10 uM pe-incubated for 15 mins before TNFR1 addition and measured after 15 mins by MST assay (Rvb = 0.23 uM)
[2] = Binding affinity to recombinant TNFalpha (unknown origin) expressed in Escherichia coli BL21 (DE3) assessed as Kd for TNF-alpha-TNFR1 binding at 100 uM pe-incubated for 15 mins before TNFR1 addition and measured after 15 mins by MST assay (Rvb = 0.23 uM)

Kd [1]: 4.26 µM
Kd [2]: 19.6 µM
SMILES: O=C1C[C@H](Nc2ncnc3[nH]cnc23)CN1Cc1ccccc1
